Assay [1] addresses T1, Crossover junction endonuclease MUS81 (Homo sapiens, UniProt Q96NY9).
T1 sequence (Q96NY9 whole entry): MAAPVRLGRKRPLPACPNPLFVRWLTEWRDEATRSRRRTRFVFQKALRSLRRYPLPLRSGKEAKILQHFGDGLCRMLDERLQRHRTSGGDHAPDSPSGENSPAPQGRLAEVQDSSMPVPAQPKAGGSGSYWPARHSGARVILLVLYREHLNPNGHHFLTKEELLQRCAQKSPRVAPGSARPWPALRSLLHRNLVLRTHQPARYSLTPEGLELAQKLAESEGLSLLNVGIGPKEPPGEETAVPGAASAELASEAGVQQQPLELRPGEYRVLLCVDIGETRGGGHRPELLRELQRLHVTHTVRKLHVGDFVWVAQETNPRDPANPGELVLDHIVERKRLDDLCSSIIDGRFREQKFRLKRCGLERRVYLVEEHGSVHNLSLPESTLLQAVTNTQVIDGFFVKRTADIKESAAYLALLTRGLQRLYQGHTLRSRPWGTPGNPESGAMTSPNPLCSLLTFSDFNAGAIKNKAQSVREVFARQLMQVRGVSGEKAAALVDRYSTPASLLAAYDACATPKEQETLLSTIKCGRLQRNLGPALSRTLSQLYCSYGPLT
The experiment in a line: Binding affinity to human GST-tagged MUS81-ECE1 expressed in Escherichia coli BL21(DE3)Rosetta2 cells assessed as dissociation constant by Surface plasmon resonance analysis. (In SPR one partner is held on a chip, and binding of the other changes the refractive index at the surface.)

Assay [2] has as its target T1, Crossover junction endonuclease MUS81. The experiment in a line: Binding affinity to human GST-tagged MUS81-ECE2 expressed in Escherichia coli BL21(DE3)Rosetta2 cells assessed as dissociation constant by Surface plasmon resonance analysis.

SMILES strings stand for the structures.

For orientation: Kd means the concentration at which binding is half-saturated.

Regarding `O=C(N/N=C/c1cc(O)c(O)cc1O)c1cc2ccccc2cc1O`, the dissociation constant (Kd) in assay [1] and in assay [2] was 6.1 nM throughout.

The values above are taken from BindingDB's records for doi:10.1016/j.bmc.2023.117383 (Fuzhou University, 2023).
